Laboratory results published in BindingDB's records for doi:10.1016/j.ejmech.2016.01.043 (Yonsei University, 2016).
pKi: −log10 of the molar value.

Molecular target: 5-hydroxytryptamine receptor 7 (Homo sapiens, UniProt P34969)
Assay: Displacement of [3H]LSD from 5-HT7 receptor (unknown origin) expressed in CHO-K1 cells by liquid scintillation counting method

5-hydroxytryptamine receptor 7, sequence (P34969 whole entry): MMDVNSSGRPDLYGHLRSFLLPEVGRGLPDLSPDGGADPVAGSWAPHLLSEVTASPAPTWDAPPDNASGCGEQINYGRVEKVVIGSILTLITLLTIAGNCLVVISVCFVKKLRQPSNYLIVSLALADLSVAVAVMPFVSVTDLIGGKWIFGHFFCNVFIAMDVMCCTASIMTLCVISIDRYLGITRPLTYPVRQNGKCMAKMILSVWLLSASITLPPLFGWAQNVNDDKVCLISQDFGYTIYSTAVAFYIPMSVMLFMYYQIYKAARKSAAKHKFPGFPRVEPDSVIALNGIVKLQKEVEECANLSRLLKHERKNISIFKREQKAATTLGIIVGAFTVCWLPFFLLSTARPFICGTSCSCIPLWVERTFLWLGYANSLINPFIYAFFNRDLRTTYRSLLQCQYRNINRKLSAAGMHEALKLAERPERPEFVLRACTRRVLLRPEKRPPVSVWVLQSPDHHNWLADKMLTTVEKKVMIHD

pKi: 6.10
SMILES: CC1CCCN(CCCCC(=O)n2c3ccccc3c3ccccc32)C1 (stereo unspecified)
